Measurements taken from BindingDB's records for doi:10.1016/S0960-894X(97)00368-5 (1997).

Molecular target: Human cytomegalovirus protease (assemblin)
Test: Inhibitory concentration against human cytomegalovirus protease variant expressing a beta galactosidase reporter gene

Structure (SMILES) | IC50 [nM]
Cc1c(NC(=O)c2ccccn2)ccc2nc(N[C@H](C)c3ccccc3)oc(=O)c12 [Pyridine-2-carboxylic acid [5-methyl-4-oxo-2-(1-phenyl-ethylamino)-4H-benzo[d][1,3]oxazin-6-yl]-amide] | 720
Cc1cccc2nc(NC(C)C)oc(=O)c12 [2-Isopropylamino-5-methyl-benzo[d][1,3]oxazin-4-one] | 4000
Cc1c(NC(=O)CN(C)C)ccc2nc(N[C@H](C)c3ccccc3)oc(=O)c12 [2-Dimethylamino-N-[5-methyl-4-oxo-2-(1-phenyl-ethylamino)-4H-benzo[d][1,3]oxazin-6-yl]-acetamide] | 2200
Cc1cccc2nc(N[C@H](C)c3ccc(Br)cc3)oc(=O)c12 [2-[1-(4-Bromo-phenyl)-ethylamino]-5-methyl-benzo[d][1,3]oxazin-4-one] | 460
Cc1c(NC(=O)OC(C)(C)C)ccc2nc(N[C@H](C)c3ccccc3)oc(=O)c12 [[5-Methyl-4-oxo-2-(1-phenyl-ethylamino)-4H-benzo[d][1,3]oxazin-6-yl]-carbamic acid tert-butyl ester] | 1300
